{"source": "patent US20100137449A1", "about": "“SUBSTITUTED 1,3-CYCLOPENTADIONE MULTI-TARGET PROTEIN KINASE MODULATORS OF CANCER, ANGIOGENESIS AND THE INFLAMMATORY PATHWAYS ASSOCIATED THEREWITH” (METAPROTEOMICS, LLC, priority 2007, published 2010)", "assay_in_all_cases": "KinaseProfiler Assay", "key": {"SAPK4(h)": {"biological_target": "T1, SAPK4(h) (Homo sapiens, UniProt O15264)", "T1 sequence (O15264 1-365)": "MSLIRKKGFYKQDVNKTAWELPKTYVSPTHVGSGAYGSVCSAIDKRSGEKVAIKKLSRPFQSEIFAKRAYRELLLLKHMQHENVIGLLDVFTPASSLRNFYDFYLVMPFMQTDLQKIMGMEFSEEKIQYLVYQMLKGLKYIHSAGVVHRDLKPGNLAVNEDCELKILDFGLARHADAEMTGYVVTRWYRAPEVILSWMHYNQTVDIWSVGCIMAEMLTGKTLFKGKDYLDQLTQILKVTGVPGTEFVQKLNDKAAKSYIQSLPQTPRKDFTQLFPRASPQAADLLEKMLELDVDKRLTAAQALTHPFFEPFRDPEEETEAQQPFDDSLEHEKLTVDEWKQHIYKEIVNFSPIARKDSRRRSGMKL"}, "EphB3(h)": {"biological_target": "T2, EphB3(h) (Homo sapiens, UniProt P54753)", "T2 sequence (P54753 34-998)": "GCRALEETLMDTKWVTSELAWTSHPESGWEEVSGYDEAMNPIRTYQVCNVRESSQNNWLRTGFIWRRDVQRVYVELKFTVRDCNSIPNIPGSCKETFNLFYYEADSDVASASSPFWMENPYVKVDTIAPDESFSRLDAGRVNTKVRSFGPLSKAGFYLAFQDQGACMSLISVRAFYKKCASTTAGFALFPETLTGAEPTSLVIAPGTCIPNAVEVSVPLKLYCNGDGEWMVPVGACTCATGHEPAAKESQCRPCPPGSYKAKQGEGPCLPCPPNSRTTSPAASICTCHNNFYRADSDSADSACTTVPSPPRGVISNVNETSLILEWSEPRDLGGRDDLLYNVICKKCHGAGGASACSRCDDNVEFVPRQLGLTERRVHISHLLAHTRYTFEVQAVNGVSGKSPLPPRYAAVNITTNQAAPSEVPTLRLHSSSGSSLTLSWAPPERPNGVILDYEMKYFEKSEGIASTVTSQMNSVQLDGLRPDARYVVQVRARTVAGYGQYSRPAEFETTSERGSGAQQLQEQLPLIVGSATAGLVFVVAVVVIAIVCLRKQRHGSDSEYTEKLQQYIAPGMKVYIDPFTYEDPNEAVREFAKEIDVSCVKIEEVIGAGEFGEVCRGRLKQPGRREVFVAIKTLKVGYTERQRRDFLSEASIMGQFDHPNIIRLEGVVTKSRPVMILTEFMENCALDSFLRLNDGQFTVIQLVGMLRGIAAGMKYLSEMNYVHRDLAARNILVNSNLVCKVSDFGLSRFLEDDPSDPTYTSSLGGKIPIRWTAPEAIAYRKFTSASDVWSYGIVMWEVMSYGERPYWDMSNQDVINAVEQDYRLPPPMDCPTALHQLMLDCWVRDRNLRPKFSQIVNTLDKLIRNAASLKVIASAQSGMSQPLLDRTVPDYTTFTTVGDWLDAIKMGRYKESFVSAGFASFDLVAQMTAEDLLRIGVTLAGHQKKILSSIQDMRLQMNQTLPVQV"}, "EphA8(h)": {"biological_target": "T3, EphA8(h) (Homo sapiens, UniProt P29322)", "T3 sequence (P29322 28-1005)": "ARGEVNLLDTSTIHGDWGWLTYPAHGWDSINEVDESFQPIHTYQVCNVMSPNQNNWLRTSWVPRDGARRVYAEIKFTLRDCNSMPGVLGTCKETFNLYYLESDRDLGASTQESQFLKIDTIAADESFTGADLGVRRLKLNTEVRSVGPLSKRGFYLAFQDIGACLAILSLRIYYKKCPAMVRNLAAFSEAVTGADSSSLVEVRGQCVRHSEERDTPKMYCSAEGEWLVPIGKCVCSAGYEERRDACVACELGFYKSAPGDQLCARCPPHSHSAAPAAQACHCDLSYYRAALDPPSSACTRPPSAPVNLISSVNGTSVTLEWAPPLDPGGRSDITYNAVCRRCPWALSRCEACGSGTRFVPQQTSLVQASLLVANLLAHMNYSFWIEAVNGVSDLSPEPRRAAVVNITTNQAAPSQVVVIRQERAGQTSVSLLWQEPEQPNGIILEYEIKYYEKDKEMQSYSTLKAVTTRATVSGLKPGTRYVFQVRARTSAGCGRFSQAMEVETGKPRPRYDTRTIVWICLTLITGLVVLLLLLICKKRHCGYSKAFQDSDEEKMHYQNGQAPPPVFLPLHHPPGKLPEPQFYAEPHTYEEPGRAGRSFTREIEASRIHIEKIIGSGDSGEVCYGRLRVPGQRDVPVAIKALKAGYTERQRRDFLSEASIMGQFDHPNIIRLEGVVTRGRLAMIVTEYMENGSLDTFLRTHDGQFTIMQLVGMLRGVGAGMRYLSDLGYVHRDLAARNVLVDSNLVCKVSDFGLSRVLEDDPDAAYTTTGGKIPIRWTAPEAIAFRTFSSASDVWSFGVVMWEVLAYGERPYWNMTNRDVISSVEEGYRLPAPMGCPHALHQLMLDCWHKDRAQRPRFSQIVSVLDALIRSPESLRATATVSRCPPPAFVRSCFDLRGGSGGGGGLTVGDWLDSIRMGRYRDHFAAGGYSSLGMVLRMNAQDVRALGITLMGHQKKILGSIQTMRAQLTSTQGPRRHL"}}}
{"smiles": "CC(C)CCC(=O)[C@]1(O)C(O)=C(C(=O)C(C)C)C(=O)[C@H]1CCC(C)C", "note": "[TH2, tetrahydroiso-cohumulone]", "values": [{"measurement": "kinase inhibition", "setting": "SAPK4(h); 1 μg/ml", "result": "114% of control"}, {"measurement": "kinase inhibition", "setting": "SAPK4(h); 5 μg/ml", "result": "118% of control"}, {"measurement": "kinase inhibition", "setting": "SAPK4(h); 25 μg/ml", "result": "116% of control"}, {"measurement": "kinase inhibition", "setting": "SAPK4(h); 50 μg/ml", "result": "121% of control"}, {"measurement": "kinase inhibition", "setting": "SAPK4(h); 100 μg/ml", "result": "109% of control"}, {"measurement": "kinase inhibition", "setting": "EphB3(h); 1 μg/ml", "result": "80% of control"}, {"measurement": "kinase inhibition", "setting": "EphB3(h); 5 μg/ml", "result": "71% of control"}, {"measurement": "kinase inhibition", "setting": "EphB3(h); 25 μg/ml", "result": "69% of control"}, {"measurement": "kinase inhibition", "setting": "EphB3(h); 50 μg/ml", "result": "62% of control"}, {"measurement": "kinase inhibition", "setting": "EphB3(h); 100 μg/ml", "result": "57% of control"}, {"measurement": "kinase inhibition", "setting": "EphA8(h); 1 μg/ml", "result": "118% of control"}, {"measurement": "kinase inhibition", "setting": "EphA8(h); 5 μg/ml", "result": "99% of control"}, {"measurement": "kinase inhibition", "setting": "EphA8(h); 25 μg/ml", "result": "112% of control"}, {"measurement": "kinase inhibition", "setting": "EphA8(h); 50 μg/ml", "result": "101% of control"}, {"measurement": "kinase inhibition", "setting": "EphA8(h); 100 μg/ml", "result": "100% of control"}]}
